Experimental data published in the supplement of paper PMC12463676, “Small-molecule dissolution of stress granules by redox modulation benefits ALS models” (Nature Chemical Biology, 2025).

Tests used:
[1] = compound: O=[As]([O-])(O)O.[K+] [potassium arsenate]; assay: thermal stability z-score vs DMSO; higher = more thermally stabilized by treatment; details: HeLa; arsenate concentration 1 mM
Procedure: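 Cellular thermal proteome profiling in HeLa cells treated with 1 mM arsenate for 1 h (DMSO pretreatment), heated to ten temperatures (37-66.3 °C). Soluble protein was quantified by TMT mass spectrometry relative to DMSO controls; the thermal stability score was transformed to a z-score; mean of n = 3 experiments.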

[2] = compound: NC(=O)CCCCC1CCSS1 [lipoamide]; assay: as above; details: HeLa, lipoamide concentration 100 µM
Procedure: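 Cellular thermal proteome profiling in HeLa cells. Cells were treated with 100 µM lipoamide for 1 h, with or without 1 mM arsenate for a further 1 h, then heated to ten temperatures (37-66.3 °C), and soluble protein was quantified by TMT mass spectrometry relative to 0.1% DMSO controls. The thermal stability score (sum of log2 fold changes minus the abundance score) was transformed to a z-score; mean of n = 3 experiments.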

[3] = arsenate co-treatment: 1 mM arsenate 1 h
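Further: each temperature applied for 3 min, abundance score taken as mean log2 fold change at the two lowest temperatures, z-score obtained by mean subtraction and division by SD.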

Sequence of UniProt Q96CP2 (Q96CP2 whole entry): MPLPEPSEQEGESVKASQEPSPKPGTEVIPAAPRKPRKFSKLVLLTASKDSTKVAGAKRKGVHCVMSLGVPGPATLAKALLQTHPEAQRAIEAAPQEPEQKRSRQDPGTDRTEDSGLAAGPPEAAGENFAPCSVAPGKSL
Sequence of UniProt Q9NQP4 (Q9NQP4 whole entry): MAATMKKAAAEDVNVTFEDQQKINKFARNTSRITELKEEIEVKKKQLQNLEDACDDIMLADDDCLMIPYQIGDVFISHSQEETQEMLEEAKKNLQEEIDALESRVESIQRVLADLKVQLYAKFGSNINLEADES
Sequence of UniProt Q00796 (Q00796 whole entry): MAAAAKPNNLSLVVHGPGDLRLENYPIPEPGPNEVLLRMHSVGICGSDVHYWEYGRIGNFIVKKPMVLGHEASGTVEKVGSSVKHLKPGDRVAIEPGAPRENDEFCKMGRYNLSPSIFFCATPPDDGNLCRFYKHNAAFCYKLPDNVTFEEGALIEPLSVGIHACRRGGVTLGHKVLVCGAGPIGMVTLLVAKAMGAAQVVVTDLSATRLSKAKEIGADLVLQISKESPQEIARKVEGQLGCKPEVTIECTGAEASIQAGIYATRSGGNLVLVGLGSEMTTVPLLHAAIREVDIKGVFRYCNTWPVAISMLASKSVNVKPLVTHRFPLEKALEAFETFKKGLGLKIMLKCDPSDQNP
Sequence of UniProt Q16666 (Q16666 whole entry): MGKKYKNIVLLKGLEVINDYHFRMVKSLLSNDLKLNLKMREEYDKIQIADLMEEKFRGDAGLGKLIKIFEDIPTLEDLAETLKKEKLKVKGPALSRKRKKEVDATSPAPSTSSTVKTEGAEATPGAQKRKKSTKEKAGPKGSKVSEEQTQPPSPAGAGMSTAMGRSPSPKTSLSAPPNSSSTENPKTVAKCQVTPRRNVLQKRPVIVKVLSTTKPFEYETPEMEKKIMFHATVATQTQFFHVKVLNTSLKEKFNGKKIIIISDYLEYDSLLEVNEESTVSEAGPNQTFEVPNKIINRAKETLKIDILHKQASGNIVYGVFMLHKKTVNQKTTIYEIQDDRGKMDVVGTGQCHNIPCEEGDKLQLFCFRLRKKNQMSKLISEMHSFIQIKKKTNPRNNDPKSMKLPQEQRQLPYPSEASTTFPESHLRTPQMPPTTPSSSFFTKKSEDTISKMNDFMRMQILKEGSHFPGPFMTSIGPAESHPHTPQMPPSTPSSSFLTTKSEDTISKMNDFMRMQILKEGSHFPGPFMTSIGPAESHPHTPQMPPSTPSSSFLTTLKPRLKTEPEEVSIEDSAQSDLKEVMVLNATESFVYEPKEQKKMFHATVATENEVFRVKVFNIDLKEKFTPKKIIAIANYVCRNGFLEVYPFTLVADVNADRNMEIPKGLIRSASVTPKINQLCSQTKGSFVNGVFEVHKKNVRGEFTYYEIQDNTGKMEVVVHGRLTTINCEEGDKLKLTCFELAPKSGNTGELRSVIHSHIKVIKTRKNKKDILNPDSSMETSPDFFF
Sequence of UniProt O14880 (O14880 whole entry): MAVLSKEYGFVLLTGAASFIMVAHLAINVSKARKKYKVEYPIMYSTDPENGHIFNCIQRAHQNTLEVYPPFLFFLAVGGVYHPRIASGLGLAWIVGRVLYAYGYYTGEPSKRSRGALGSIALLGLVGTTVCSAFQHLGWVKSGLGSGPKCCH
Sequence of UniProt Q9Y570 (Q9Y570 whole entry): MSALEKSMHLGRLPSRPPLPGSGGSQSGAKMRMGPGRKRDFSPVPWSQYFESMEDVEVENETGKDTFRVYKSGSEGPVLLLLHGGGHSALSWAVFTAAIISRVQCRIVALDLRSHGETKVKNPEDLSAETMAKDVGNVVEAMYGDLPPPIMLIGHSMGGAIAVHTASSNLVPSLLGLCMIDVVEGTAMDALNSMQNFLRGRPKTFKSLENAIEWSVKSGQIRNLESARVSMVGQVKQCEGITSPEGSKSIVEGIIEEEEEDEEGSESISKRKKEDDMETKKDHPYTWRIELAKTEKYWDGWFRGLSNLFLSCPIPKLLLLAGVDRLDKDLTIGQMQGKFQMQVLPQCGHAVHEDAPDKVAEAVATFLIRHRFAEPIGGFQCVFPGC
Sequence of UniProt Q00765 (Q00765 whole entry): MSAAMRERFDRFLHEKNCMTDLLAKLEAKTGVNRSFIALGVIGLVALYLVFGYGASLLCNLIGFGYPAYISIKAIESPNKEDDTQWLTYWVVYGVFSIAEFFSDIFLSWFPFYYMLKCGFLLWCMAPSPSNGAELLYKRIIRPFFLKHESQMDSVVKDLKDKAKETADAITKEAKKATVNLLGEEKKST
Sequence of UniProt Q00169 (Q00169 whole entry): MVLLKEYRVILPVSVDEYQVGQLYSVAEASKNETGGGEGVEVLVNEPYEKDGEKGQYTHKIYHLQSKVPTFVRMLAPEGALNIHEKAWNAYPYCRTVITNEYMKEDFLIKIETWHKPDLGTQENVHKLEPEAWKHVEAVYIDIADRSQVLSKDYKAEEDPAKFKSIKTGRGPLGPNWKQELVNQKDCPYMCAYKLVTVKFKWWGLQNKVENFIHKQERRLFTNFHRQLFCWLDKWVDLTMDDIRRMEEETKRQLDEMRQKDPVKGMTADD
Sequence of UniProt Q8IW45 (Q8IW45 whole entry): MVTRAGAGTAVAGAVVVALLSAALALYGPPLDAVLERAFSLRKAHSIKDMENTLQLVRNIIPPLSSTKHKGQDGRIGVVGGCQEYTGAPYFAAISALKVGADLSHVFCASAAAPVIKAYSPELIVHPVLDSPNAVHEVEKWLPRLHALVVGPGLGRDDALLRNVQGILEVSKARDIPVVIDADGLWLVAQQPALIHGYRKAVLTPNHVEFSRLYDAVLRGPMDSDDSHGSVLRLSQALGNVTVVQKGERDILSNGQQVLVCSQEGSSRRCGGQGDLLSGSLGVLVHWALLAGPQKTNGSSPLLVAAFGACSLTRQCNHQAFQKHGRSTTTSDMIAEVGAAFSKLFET
Sequence of UniProt Q9UJW0 (Q9UJW0 whole entry): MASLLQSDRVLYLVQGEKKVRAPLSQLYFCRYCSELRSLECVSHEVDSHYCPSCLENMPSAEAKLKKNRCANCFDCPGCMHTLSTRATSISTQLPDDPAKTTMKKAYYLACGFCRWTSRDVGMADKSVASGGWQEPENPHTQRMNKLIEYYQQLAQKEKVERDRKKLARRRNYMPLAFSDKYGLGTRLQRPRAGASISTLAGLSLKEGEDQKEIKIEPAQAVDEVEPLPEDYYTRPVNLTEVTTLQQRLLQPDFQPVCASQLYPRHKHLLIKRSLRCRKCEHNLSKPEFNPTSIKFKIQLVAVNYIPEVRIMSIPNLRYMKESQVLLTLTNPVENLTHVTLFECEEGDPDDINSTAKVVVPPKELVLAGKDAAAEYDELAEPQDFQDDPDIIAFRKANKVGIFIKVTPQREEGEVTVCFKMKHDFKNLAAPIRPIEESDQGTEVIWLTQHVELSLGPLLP
Sequence of UniProt Q6DN90 (Q6DN90 whole entry): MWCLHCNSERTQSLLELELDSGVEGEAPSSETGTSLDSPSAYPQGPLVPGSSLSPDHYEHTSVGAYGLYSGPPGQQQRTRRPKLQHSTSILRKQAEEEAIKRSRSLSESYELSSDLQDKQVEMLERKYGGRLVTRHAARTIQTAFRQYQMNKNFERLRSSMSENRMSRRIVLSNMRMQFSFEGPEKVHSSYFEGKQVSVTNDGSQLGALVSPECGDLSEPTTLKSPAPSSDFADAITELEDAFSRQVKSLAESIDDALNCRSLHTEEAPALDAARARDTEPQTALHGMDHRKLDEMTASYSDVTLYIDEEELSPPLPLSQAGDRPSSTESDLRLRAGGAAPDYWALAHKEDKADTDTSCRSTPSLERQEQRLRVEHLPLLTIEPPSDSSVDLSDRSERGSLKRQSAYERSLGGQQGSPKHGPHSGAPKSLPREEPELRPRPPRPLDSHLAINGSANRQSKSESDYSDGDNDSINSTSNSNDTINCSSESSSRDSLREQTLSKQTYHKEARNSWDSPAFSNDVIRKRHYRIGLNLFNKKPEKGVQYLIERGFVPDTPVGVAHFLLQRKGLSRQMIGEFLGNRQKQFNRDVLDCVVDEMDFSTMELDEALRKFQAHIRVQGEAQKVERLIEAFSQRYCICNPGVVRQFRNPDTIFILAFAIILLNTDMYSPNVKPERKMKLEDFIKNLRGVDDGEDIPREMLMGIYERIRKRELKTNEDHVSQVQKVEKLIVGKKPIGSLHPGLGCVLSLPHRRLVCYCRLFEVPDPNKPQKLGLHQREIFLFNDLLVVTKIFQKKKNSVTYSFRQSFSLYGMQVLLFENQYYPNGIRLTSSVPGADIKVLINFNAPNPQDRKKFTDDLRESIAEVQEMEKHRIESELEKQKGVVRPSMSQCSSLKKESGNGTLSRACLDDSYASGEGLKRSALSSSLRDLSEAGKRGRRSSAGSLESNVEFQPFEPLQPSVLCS
Sequence of UniProt Q6P6C2 (Q6P6C2 whole entry, looked up): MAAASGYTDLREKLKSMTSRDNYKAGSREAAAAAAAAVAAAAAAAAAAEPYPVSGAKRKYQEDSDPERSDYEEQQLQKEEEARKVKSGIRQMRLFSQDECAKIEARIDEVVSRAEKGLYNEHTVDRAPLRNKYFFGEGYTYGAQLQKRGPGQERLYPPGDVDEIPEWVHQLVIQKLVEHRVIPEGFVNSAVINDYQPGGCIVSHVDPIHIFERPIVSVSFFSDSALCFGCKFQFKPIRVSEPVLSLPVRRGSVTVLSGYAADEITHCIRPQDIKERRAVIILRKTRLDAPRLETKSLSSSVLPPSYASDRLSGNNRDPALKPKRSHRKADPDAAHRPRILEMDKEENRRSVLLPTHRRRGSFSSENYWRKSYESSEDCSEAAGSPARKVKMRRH
Sequence of UniProt Q53GQ0 (Q53GQ0 whole entry): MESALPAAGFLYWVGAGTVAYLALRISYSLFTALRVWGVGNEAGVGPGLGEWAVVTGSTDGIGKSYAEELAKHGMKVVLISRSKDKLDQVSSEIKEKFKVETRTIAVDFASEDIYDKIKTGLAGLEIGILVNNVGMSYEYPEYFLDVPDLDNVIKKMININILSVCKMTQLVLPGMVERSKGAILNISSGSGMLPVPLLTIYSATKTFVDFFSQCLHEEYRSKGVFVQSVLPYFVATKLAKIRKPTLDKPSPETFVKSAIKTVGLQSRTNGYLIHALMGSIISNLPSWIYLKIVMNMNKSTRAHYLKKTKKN

| Target | thermal stability z-score [1] | thermal stability z-score [2, 3] | thermal stability z-score ([2]; arsenate co-treatment: none) |
| --- | --- | --- | --- |
| USP10 (UniProt Q14694) | -0.241 | 0.103 | 0.045 |
| MARVELD2 (UniProt Q8N4S9) | -0.292 | -0.452 | 0.477 |
| UTP14A (UniProt Q9BVJ6) | 2.11 | 1.62 | 0.823 |
| CAV1 (UniProt Q03135) | 1.02 | 0.49 | 0.74 |
| FAU (UniProt P62861) | 1.15 | 1.7 | 1.21 |
| ASNA1 (UniProt O43681) | -0.178 | -0.234 | -0.285 |
| SBF1 (UniProt O95248) | -0.338 | -0.316 | 0.227 |
| ADAM9 (UniProt Q13443) | 0.397 | -0.535 | -0.428 |
| MGST3 (UniProt O14880) | 2.22 | 0.65 | 0.431 |
| PDCD5 (UniProt O14737) | 0.417 | 1.01 | 0.727 |
| TOMM40 (UniProt O96008) | 1.15 | 0.59 | 0.961 |
| RALA (UniProt P11233) | -0.459 | 0.107 | -0.0183 |
| GFER (UniProt P55789) | 0.816 | 0.239 | 0.231 |
| TNPO3 (UniProt Q9Y5L0) | -0.107 | -0.654 | -0.367 |
| DCTN4 (UniProt Q9UJW0) | -0.11 | -0.368 | -0.0931 |
| NEDD4L (UniProt Q96PU5) | 0.0653 | -0.314 | -0.354 |
| IQSEC1 (UniProt Q6DN90) | 0.159 | 0.165 | 0.212 |
| PFDN4 (UniProt Q9NQP4) | -0.445 | 0.286 | 0.37 |
| VCL (UniProt P18206) | -2.02 | -0.353 | -0.286 |
| ATP5B (UniProt P06576) | 0.0331 | -0.424 | -0.332 |
| AP4B1 (UniProt Q9Y6B7) | -0.137 | 0.0905 | -0.147 |
| SZRD1 (UniProt Q7Z422) | -0.0744 | 0.289 | 0.399 |
| TRUB1 (UniProt Q8WWH5) | 0.231 | -0.102 | 0.175 |
| AK2 (UniProt P54819) | -0.84 | -0.717 | -0.168 |

| Target | thermal stability z-score [1] | thermal stability z-score [2, 3] | thermal stability z-score ([2]; arsenate co-treatment: none) |
| --- | --- | --- | --- |
| CDC42BPA (UniProt Q5VT25) | 0.379 | 0.504 | 0.561 |
| SEC11A (UniProt P67812) | 0.475 | -2.78 | -1.58 |
| PTPMT1 (UniProt Q8WUK0) | 0.767 | 0.619 | 0.326 |
| HSD17B12 (UniProt Q53GQ0) | 0.614 | 0.28 | 0.0767 |
| STXBP2 (UniProt Q15833) | 0.225 | -0.105 | 0.167 |
| DENND4B (UniProt O75064) | 0.288 | 0.182 | -0.0196 |
| EXOSC5 (UniProt Q9NQT4) | -0.564 | 1.79 | 1.03 |
| NAXD (UniProt Q8IW45) | 0.0249 | -0.31 | 0.472 |
| SAAL1 (UniProt Q96ER3) | 0.336 | 0.357 | -0.345 |
| RIPK2 (UniProt O43353) | -0.644 | -0.255 | 0.45 |
| TMEM181 (UniProt Q9P2C4) | 0.205 | 0.128 | 0.201 |
| PPME1 (UniProt Q9Y570) | -1.09 | 0.126 | 0.00998 |
| ALG3 (UniProt Q92685) | 0.141 | -0.0793 | -0.236 |
| FAM173A (UniProt Q9BQD7) | -0.445 | -0.403 | -0.6 |
| HADHB (UniProt P55084) | -0.422 | -0.0335 | 0.077 |
| PTCD2 (UniProt Q8WV60) | -0.0322 | 0.00948 | -0.0661 |
| PAPD5 (UniProt Q8NDF8) | -0.0587 | 0.175 | -0.0726 |
| IFI16 (UniProt Q16666) | -0.386 | 0.022 | 0.122 |
| PTPN12 (UniProt Q05209) | -0.087 | -0.407 | -0.595 |
| ALKBH5 (UniProt Q6P6C2) | 2.96 | 1.79 | -0.205 |
| CHID1 (UniProt Q9BWS9) | 1.18 | -3.11 | -1.7 |
| HSDL1 (UniProt Q3SXM5) | -1.43 | -0.0659 | -0.0958 |
| CDR2L (UniProt Q86X02) | -0.419 | 0.891 | 0.86 |
| ZC3H15 (UniProt Q8WU90) | 0.0266 | -0.032 | -0.0996 |

| Target | thermal stability z-score [1] | thermal stability z-score [2, 3] | thermal stability z-score ([2]; arsenate co-treatment: none) |
| --- | --- | --- | --- |
| SF3B6 (UniProt Q9Y3B4) | -0.667 | -0.787 | -0.165 |
| SLC25A11 (UniProt Q02978) | 0.593 | 0.183 | 0.431 |
| SYNGR2 (UniProt O43760) | -0.0246 | 0.329 | 0.548 |
| MED23 (UniProt Q9ULK4) | -0.274 | -0.0582 | -0.269 |
| PPP1CC (UniProt P36873) | -0.446 | 0.0493 | -0.463 |
| RAP1GAP (UniProt P47736) | 0.233 | -0.459 | -0.26 |
| SOAT1 (UniProt P35610) | 0.731 | -1.32 | -0.546 |
| AIMP2 (UniProt Q13155) | 0.702 | -0.616 | -0.263 |
| SPTAN1 (UniProt Q13813) | -1.44 | 0.768 | 0.506 |
| PITPNA (UniProt Q00169) | -0.787 | 0.386 | 0.434 |
| SEC62 (UniProt Q99442) | -0.75 | 0.39 | 0.266 |
| POLD3 (UniProt Q15054) | -0.487 | -0.0475 | 0.44 |
| PSMD5 (UniProt Q16401) | 0.282 | 0.166 | 0.024 |
| LMO4 (UniProt P61968) | 0.164 | 0.548 | 0.0182 |
| CSNK2A1 (UniProt P68400) | 0.489 | 0.541 | 0.00111 |
| ZNF787 (UniProt Q6DD87) | 0.223 | 0.853 | 1.17 |
| ALG8 (UniProt Q9BVK2) | 0.491 | 0.425 | -0.262 |
| DIP2A (UniProt Q14689) | -0.205 | 0.82 | -0.0406 |
| FLYWCH2 (UniProt Q96CP2) | 0.0187 | 0.101 | 0.222 |
| REEP5 (UniProt Q00765) | 0.354 | 0.359 | 1 |
| PPOX (UniProt P50336) | 0.154 | 0.085 | 0.352 |
| DNM2 (UniProt P50570) | 0.304 | -0.494 | -0.287 |
| SORD (UniProt Q00796) | -0.608 | 0.301 | -0.192 |
